Laboratory results: patent US20250361486A1, “METHOD FOR CULTURING CELLS REQUIRING A SUPPLY OF IRON” (SAFI BIOTHERAPEUTICS INC., priority 2022, published 2025)

Experiments:
[1] = tested on: cultured red blood cells; assay: Cell losses at end of red blood cell perfusion culture; type: cell-based; conditions: Trolox approximately 100 μM in culture medium, perfusion bioreactor step D7 to D22; average of 6 cultures; 13% loss without Trolox
Description: (§1) Cultured red blood cell production was performed with and without the addition of Trolox during the perfusion bioreactor culture step of the process described below.
(§2) Briefly, the cells cultured according to the invention are total nucleated cells collected by cytapheresis from volunteer donors previously mobilised with G-CSF.
(§3) A first step of the process according to the invention is carried out over 7 days (from D1 to D7) in fed-batch at a temperature of 37° C., under an atmosphere of 5% CO2 and in a culture medium adapted from that described by Giarratana et al. (2011) “Proof of principle for transfusion of in vitro-generated red blood cells”, Blood 118:5071-5079 for the first step of the expansion procedure described in the article (page 5072). Halfway through this step, fresh culture medium is added to the culture so as to dilute the culture by half (the same volume of culture medium is added as the volume initially present). […]
Fifteen cultures were performed (9 without Trolox and 6 with Trolox) and cell losses were measured at the end of the culture, defined as the % decrease in cell concentration between the peak cell concentration and the day the culture was stopped (2 to 3 days later).

[2] = tested on: cultured red blood cells; assay: Preservation yield of cultured red blood cells after 28 days in a preservation solution; type: cell-based; conditions: culture conducted with Trolox approximately 100 μM; red blood cells stored for 28 days in a preservation solution; 63% without Trolox
Description: as §1, §2, §3
Furthermore, the red blood cells from the above cultures were stored for 28 days in a preservation solution and the preservation efficiency at the end of the preservation period was determined [100×(final red blood cell count/mL)/(initial red blood cell count/mL].

`Cc1c(C)c2c(c(C)c1O)CCC(C)(C(=O)O)O2` (centres unmarked) [Trolox, 3,4-dihydro-6-hydroxy-2,5,7,8-tetramethyl-2H-I-benzopyran-2-carboxylic acid] was tested, and the “cell losses at the end of culture (% decrease in cell concentration between peak cell concentration and day culture was stopped)” value [1] was 6% and the “average conservation yield [100×(final red blood cell count/mL)/(initial red blood cell count/mL)]” value [2] was 77%.
